# Test results as given in BindingDB's records for doi:10.1016/s0960-894x(98)00641-6 (Kwansei Gakuin University, 1999).
# Assay: Compound was tested for inhibitory activity against type II Phospholipase A2 (PLA2) isolated from japanese mamushi (Agkistrodon halys blomhoffii) venom
row,Structure (SMILES),IC50 [µM]
1,CCCCCCCCCCCC(=O)N[C@H](CCCC)COP(=O)([O-])OCC[N+](C)(C)C [(2-{[2-((S)-Dodecanoylamino)-hexyloxy]-hydroxy-phosphoryloxy}-ethyl)-trimethyl-ammonium],5.3
2,"CCCCCCCCCCCC(=O)N1C(=O)O[C@@H](COP(=O)([O-])OCC[N+](C)(C)C)[C@@H]1CCC [{2-[((4S,5S)-3-Dodecanoyl-2-oxo-4-propyl-oxazolidin-5-ylmethoxy)-hydroxy-phosphoryloxy]-ethyl}-trimethyl-ammonium]",40.1
3,"CCCCCCCCCCCC(=O)N1C(=O)O[C@H](COP(=O)([O-])OCC[N+](C)(C)C)[C@@H]1CCC [{2-[((4S,5R)-3-Dodecanoyl-2-oxo-4-propyl-oxazolidin-5-ylmethoxy)-hydroxy-phosphoryloxy]-ethyl}-trimethyl-ammonium]",52.9
4,CCCCCCCCCCCC(=O)N1C(=O)OC[C@@H]1COP(=O)([O-])OCC[N+](C)(C)C [{2-[((R)-3-Dodecanoyl-2-oxo-oxazolidin-4-ylmethoxy)-hydroxy-phosphoryloxy]-ethyl}-trimethyl-ammonium],31.3
5,"CCCCCCCCCCCC(=O)N1C(=O)O[C@@H](COP(=O)([O-])OCC[N+](C)(C)C)[C@H]1CCC [{2-[((4R,5S)-3-Dodecanoyl-2-oxo-4-propyl-oxazolidin-5-ylmethoxy)-hydroxy-phosphoryloxy]-ethyl}-trimethyl-ammonium]",45.8
6,"CCCCCCCCCCCC(=O)N1C(=O)O[C@H](COP(=O)([O-])OCC[N+](C)(C)C)[C@H]1CCC [{2-[((4R,5S)-3-Dodecanoyl-2-oxo-4-propyl-oxazolidin-5-ylmethoxy)-hydroxy-phosphoryloxy]-ethyl}-trimethyl-ammonium]",19.8
